The results in this text go back to ChEMBL document CHEMBL4145665, “Structure-Activity Relationship of Novel and Selective Biaryl-Chroman GPR40 AgoPAMs” (ACS Med Chem Lett, 2018).

Series [1] in a line: Oral bioavailability in Beagle dog at 2 mg/kg administered as single dose. Format: ADME, organism-based, Canis lupus familiaris. Conditions: in vivo.
The nature of series [2]: Fraction unbound in Wistar-Han rat plasma at 1 mg/kg, iv or 2 mg/kg, po administered as single dose. The format is ADME, organism-based.
The target of series [3] is Free fatty acid receptor 1 (Homo sapiens, UniProt O14842). Kind of series: Agonist activity at recombinant human GPR40 expressed in HEK293 cells assessed as increase in IP1 accumulation measured after 60 mins by HTRF assay relative to AM-1638. Format: functional, cell-based.
Sequence of Free fatty acid receptor 1 (O14842 whole entry): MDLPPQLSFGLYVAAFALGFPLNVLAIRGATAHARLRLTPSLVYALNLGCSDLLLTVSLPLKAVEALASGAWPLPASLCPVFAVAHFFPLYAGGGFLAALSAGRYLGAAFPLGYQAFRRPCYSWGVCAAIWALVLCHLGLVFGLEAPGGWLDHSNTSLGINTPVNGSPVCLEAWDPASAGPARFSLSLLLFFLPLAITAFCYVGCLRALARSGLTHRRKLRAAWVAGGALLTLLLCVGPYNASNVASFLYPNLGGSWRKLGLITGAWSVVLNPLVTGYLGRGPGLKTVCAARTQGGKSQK
The nature of series [4]: Fraction unbound in Beagle dog plasma at 1 mg/kg, iv or 2 mg/kg, po administered as single dose. The format is ADME, organism-based, Canis lupus familiaris.
Series [5] has as its system Rattus norvegicus. Kind of series: Antidiabetic activity in Goto Kakizaki rats assessed as inhibition of blood glucose AUC at 1 mg/kg, po pretreated for 1 hr followed by dextrose challenge measured after 20 to 60 mins by OGTT method relative to control. The format is functional.
Series [6] relates to Rattus norvegicus. Kind of series: Toxicity in Wistar rat assessed as increase in liver weight at 200 to 750 mg/kg administered once daily for 4 days. The format is organism-based. Conditions: in vivo, 96 h.
For series [7], the system named is Rattus norvegicus. Kind of series: Toxicity in Wistar rat assessed as change in cardiac troponin1 levels at 200 to 750 mg/kg administered once daily for 4 days. Conditions: in vivo, 96 h. The format is organism-based.
Series [8] is described as follows: Volume of distribution at steady state in Beagle dog at 1 mg/kg, iv or 2 mg/kg, po administered as single dose. Format: ADME, organism-based, Canis lupus familiaris. The following applies: in vivo, read-out: Vdss.
The nature of series [9]: Clearance in Wistar-Han rat at 1 mg/kg, iv or 2 mg/kg, po administered as single dose. Format: ADME, organism-based. Conditions: in vivo.
The nature of series [10]: Cmax in Wistar rat at 200 mg/kg administered once daily for 4 days. The format is ADME, organism-based. The arrangement: dose 200 mg/kg. Conditions: in vivo.
Series [11] can be described thus: Intrinsic clearance in Wistar-Han rat hepatocytes. Format: ADME, cell-based, Hepatocyte. Conditions: read-out: CLH.
For series [12], the system named is Rattus norvegicus. As to the kind of experiment: Antidiabetic activity in Sprague-Dawley rat assessed as inhibition of blood glucose AUC at 3 mg/kg, po treated prior to dextrose challenge and measured after 20 to 60 mins by IPGTT relative to control. Conditions: Rattus norvegicus, Sprague-Dawley, po. Format: functional.
Series [13] concerns Rattus norvegicus. As to the kind of experiment: Antidiabetic activity in Goto Kakizaki rats assessed as plasma concentration required for reduction in blood glucose excursion at 0.3 mg/kg, po pretreated for 1 hr followed by dextrose challenge measured 3 hrs post dose by OGTT. The format is functional, organism-based.
Series [14] relates to Rattus norvegicus. Kind of series: Toxicity in Wistar rat assessed as decrease in body weight at 750 mg/kg administered once daily for 4 days relative to control. Also on record: scale not given: the % may be the effect or the level left. Format: organism-based. Conditions: in vivo, 96 h.
Series [15] is described as follows: Volume of distribution at steady state in rhesus monkey at 1 mg/kg, iv or 2 mg/kg, po administered as single dose. The format is ADME, organism-based, Macaca mulatta. The following applies: in vivo, read-out: Vdss.
Series [16] in a line: Oral bioavailability in rhesus monkey at 2 mg/kg administered as single dose. Format: ADME, organism-based, Macaca mulatta. Conditions: in vivo.
Series [17] deals with Rattus norvegicus. As to the kind of experiment: Antidiabetic activity in Goto Kakizaki rats assessed as inhibition of blood glucose AUC at 10 mg/kg, po pretreated for 1 hr followed by dextrose challenge measured after 20 to 60 mins by OGTT method relative to control. Format: functional.
Series [18] has as its system Rattus norvegicus. As to the kind of experiment: Antidiabetic activity in po dosed Goto Kakizaki rats assessed as plasma concentration required for reduction in blood glucose excursion at MED pretreated for 1 hr followed by dextrose challenge measured 3 hrs post dose by OGTT. The format is functional, organism-based.

Consider `COc1cc(-c2ccc([C@@H]3CCc4ccc([C@H](C5CC5)[C@H](C)C(=O)[O-])cc4O3)c(F)c2)ccn1.[Na+]`, for which the bioavailability in series [1] was 79%; in series [16], 64%. For the same compound, the free fraction (fraction unbound) is 0.0002 in series [2] and 0.015 in series [4]. The max activation in [3] was greater than 179%. In addition, the inhibition in vivo at 1 mg/kg in series [5] was determined as 95%. Further, the values for the Activity entry in series [6], in [7] and in series [14] were “Non-Toxic”, “Non-Toxic” and 90%, respectively. Also, the results for the Vd in series [8] and in series [15] were 0.45 L/kg and 0.48 L/kg, respectively. The compound also gave a clearance in series [9] of 2.8 mL/min/kg. The same compound yielded a Cmax in series [10] of 223 µM. The CLint scaled in series [11] is 241 mL/min/kg. For the same compound, in [12], the inhibition in vivo at 3 mg/kg was 103%. For the same compound, the Cp in series [13] came out at 0.25 µM; in [18] it was 4.9 µM. The inhibition in vivo at 10 mg/kg in series [17] came to 118%.
